The text below walks through data of patent publication US20240239806A1, “COMPOUNDS, COMPOSITIONS AND METHODS OF TREATING DISORDERS” (Chengdu Anticancer Bioscience, Ltd., priority 2021, published 2024).

A word on the EC50: it is the concentration giving half of the maximal effect.

The subject of one experiment is SW480. Nature of the experiment: MECP in cancer cell line. Format: cell-based. The note with it: Homo sapiens. How it is done: (§1) Six lung cancer cell lines (NCI-H23, NCI-H460, NCI-H596, NCI-H2170, Calu-6 and A549), two colon cancer cell lines (HCT116 and SW460), one breast cancer cell line MDA-MB-231, one gastric cancer cell line NCI-N87, one prostate cancer cell line DU145, one cervical cancer cell line Hela, and one glioblastoma cell line T98G were obtained from ATCC. The T2 HCC cell line was derived from a mouse liver cancer model initiated by a transgene of MYC. All cell lines were cultured in DMEM (Gibco, Cleveland, TN, USA) supplemented with 5% fetal bovine serum (Gibco), penicillin (100 U/mL)—streptomycin (100 μg/mL) (Gibco, Cat. No. 15140-122), 2 mM L-glutamine (Gibco, 200 mM solution, Cat. No. 25030081), and 1 mM sodium pyruvate (Gibco, 100 mM solution, Cat. No. 11360070) at 37° C. in a humidified incubator that was maintained at 5% CO2.
(§2) We have previously developed a mechanism-informed phenotypic screening assay to identify novel antimitotic agents. Equipped with a prior understanding of the versatile functions of the chromosomal passenger protein (CPP) complex in orchestrating karyokinesis and cytokinesis, the screening assay is to score for phenotypes typically seen when the CPP complex is disabled. Specifically, the parameters for a positive hit are a temporary elevation of mitotic index (MI) at 24 hours of drug treatment and an accumulation of polyploid cells at 48 hours of drug treatment, indicative of mitotic arrest and cytokinetic failure respectively. These parameters exclude compounds that elicit only a prolonged arrest of cells in mitosis, a phenotype typically provoked by spindle toxins. The screening procedure is briefly summarized here. RPEMYC^H2B-GFP cells engineered to express a Histone 2B-EGFP fusion protein were passaged as batches of 96-well plates, 18-24 hours before exposure to the chemical compounds of the present disclosure at concentrations from 1 nM to 30 μM. At 24, 48 or 72 hours after initiation of treatment, cells were analyzed for either an arrest in mitosis or a change in DNA content by GE IN-Cell Analyzer 2000. As set forth in Table 2 below, a value of greater than or equal to 1 nM and less than or equal to 1.0 μM is marked “A”; a value greater than 1.00 μM and less than or equal to 10.0 μM is marked “B”; a value greater than 10.0 μM and less than or equal to 30.0 μM is marked “C”; and a value greater than 30.0 μM is marked “D.”
Compound `COc1cc(Oc2ccnc3ccc(OC)cc23)cc(-n2cccn2)c1` [Compound 17, 6-methoxy-4(3-methoxy-5-(1H-pyrazol-1-yl)phenoxy)quinoline] showed a minimal effective concentration of 0.001 to 1 µM.

For a further experiment, the system named is T2 HCC. Nature of the experiment: MECP in cancer cell line. The note with it: Mus musculus. Format: cell-based. The method, then:
as §1, §2
`COc1cc(Oc2ccnc3ccc(OC)cc23)cc(-n2cccn2)c1` [Compound 17, 6-methoxy-4(3-methoxy-5-(1H-pyrazol-1-yl)phenoxy)quinoline]: the minimal effective concentration was in the range of 0.001 to 1 µM.

The next experiment relates to Hela. Nature of the experiment: MECP in cancer cell line. The format is cell-based. To be noted: Homo sapiens. The method, then:
as §1, §2
Turning to `COc1cc(Oc2ccnc3ccc(OC)cc23)cc(-n2cccn2)c1` [Compound 17, 6-methoxy-4(3-methoxy-5-(1H-pyrazol-1-yl)phenoxy)quinoline], the minimal effective concentration lay in the range of 0.001 to 1 µM.

For a further experiment, the system named is MDA-MB-231. Nature of the experiment: MECP in cancer cell line. Format: cell-based. To be noted: Homo sapiens. How it is done:
as §1, §2
`COc1cc(Oc2ccnc3ccc(OC)cc23)cc(-n2cccn2)c1` [Compound 17, 6-methoxy-4(3-methoxy-5-(1H-pyrazol-1-yl)phenoxy)quinoline] had a minimal effective concentration of 0.001 to 1 µM.

The test system of another experiment is HCT116. Nature of the experiment: MECP in cancer cell line. The note with it: Homo sapiens, HCT-116. Format: cell-based. The method, then:
as §1, §2
`COc1cc(Oc2ccnc3ccc(OC)cc23)cc(-n2cccn2)c1` [Compound 17, 6-methoxy-4(3-methoxy-5-(1H-pyrazol-1-yl)phenoxy)quinoline] showed a minimal effective concentration of 0.001 to 1 µM.

A further experiment concerns A549. Nature of the experiment: MECP in cancer cell line. Format: cell-based. To be noted: Homo sapiens. How it is done:
as §1, §2
As for `COc1cc(Oc2ccnc3ccc(OC)cc23)cc(-n2cccn2)c1` [Compound 17, 6-methoxy-4(3-methoxy-5-(1H-pyrazol-1-yl)phenoxy)quinoline], the minimal effective concentration fell in the range of 0.001 to 1 µM.

Another experiment relates to SW480. Nature of the experiment: MTT assay of cellular proliferation. To be noted: Homo sapiens, 50% inhibition of cellular proliferation. The format is cell-based. How it is done:
as §1
(§3) The MTT assay measures cellular metabolic activity as a proxy for cell viability and involves the conversion of the water-soluble yellow dye MTT [3-(4,5-dimethylthiazol-2-yl)-2,5-diphenyltetrazolium bromide] into an insoluble purple formazan by the action of mitochondrial reductase. Formazan is then solubilized and its concentration is determined by measuring the optical density (OD) value at a wavelength of 570 nm. The value is in proportional to the number of live cells with excellent linearity up to ˜10^6 cells per well. The MTT assay was used to determine the EC50 value, the concentration of a compound that leads to 50% inhibition of cellular proliferation. Briefly, cells were split when growing to the mid-Log phase. Cells in 100 μL of culture medium were seeded into each well of 96-well microplates and cultivated for 15-24 hours to reach a confluence of 20-30% and were then exposed to drugs at concentrations ranging from 1 nM to 30 μM. At the endpoint, 20 μL of a MTT stock solution in DMSO (5 mg/mL) was added to each well that contains 100 μL of DMEM. The microplates were left in the cell culture incubator for 3-4 h before subjected to solubilization and determination of formazan at A570 in a microplate reader (BioTek ELX808iu). […] Therefore, these compounds might hold a broad utility in the treatment of a large variety of human malignancies.
(In general: Tetrazolium assays rely on reduction of a dye to a coloured formazan, in cell work by metabolically active cells.)
Turning to `COc1cc(Oc2ccnc3ccc(OC)cc23)cc(-n2cccn2)c1` [Compound 17, 6-methoxy-4(3-methoxy-5-(1H-pyrazol-1-yl)phenoxy)quinoline], the half-maximal effective concentration (EC50) was 1 to 1000 nM.

A further experiment has as its system T2 HCC. Nature of the experiment: MTT assay of cellular proliferation. Format: cell-based. The note with it: Mus musculus, 50% inhibition of cellular proliferation. The method, then: as §1, §3
`COc1cc(Oc2ccnc3ccc(OC)cc23)cc(-n2cccn2)c1` [Compound 17, 6-methoxy-4(3-methoxy-5-(1H-pyrazol-1-yl)phenoxy)quinoline] came in with a 50% effective concentration (EC50) of 1 to 1000 nM.

Another experiment has as its system Hela. Nature of the experiment: MTT assay of cellular proliferation. The format is cell-based. The note with it: Homo sapiens, 50% inhibition of cellular proliferation. How it is done:
as §1, §3
Consider `COc1cc(Oc2ccnc3ccc(OC)cc23)cc(-n2cccn2)c1` [Compound 17, 6-methoxy-4(3-methoxy-5-(1H-pyrazol-1-yl)phenoxy)quinoline], for which the concentration giving a half-maximal response (EC50) was 1 to 1000 nM.

Another experiment has as its system MDA-MB-231. Nature of the experiment: MTT assay of cellular proliferation. The format is cell-based. To be noted: Homo sapiens; MDA-MB-231, MTT, 50% inhibition of cellular proliferation. The method, then: as §1, §3
For the compound `COc1cc(Oc2ccnc3ccc(OC)cc23)cc(-n2cccn2)c1` [Compound 17, 6-methoxy-4(3-methoxy-5-(1H-pyrazol-1-yl)phenoxy)quinoline], the concentration for a half-maximal effect (EC50) lay in the range of 1 to 1000 nM.

Another experiment concerns HCT116. Nature of the experiment: MTT assay of cellular proliferation. Format: cell-based. To be noted: Homo sapiens, HCT-116, 50% inhibition of cellular proliferation. The method, then: as §1, §3
The compound `COc1cc(Oc2ccnc3ccc(OC)cc23)cc(-n2cccn2)c1` [Compound 17, 6-methoxy-4(3-methoxy-5-(1H-pyrazol-1-yl)phenoxy)quinoline] returned an EC50 of 1 to 1000 nM.

A further experiment deals with NCI-N87. Nature of the experiment: MTT assay of cellular proliferation. To be noted: Homo sapiens, 50% inhibition of cellular proliferation. Format: cell-based. How it is done:
as §1, §3
As to `COc1cc(Oc2ccnc3ccc(OC)cc23)cc(-n2cccn2)c1` [Compound 17, 6-methoxy-4(3-methoxy-5-(1H-pyrazol-1-yl)phenoxy)quinoline], the EC50 lay within 1 to 1000 nM.

The subject of the next experiment is NCI-H23. Nature of the experiment: MTT assay of cellular proliferation. Format: cell-based. The note with it: Homo sapiens, 50% inhibition of cellular proliferation. How it is done: as §1, §3
As for `COc1cc(Oc2ccnc3ccc(OC)cc23)cc(-n2cccn2)c1` [Compound 17, 6-methoxy-4(3-methoxy-5-(1H-pyrazol-1-yl)phenoxy)quinoline], the EC50 lay in the range of 1 to 1000 nM.

The test system of a further experiment is A549. Nature of the experiment: MTT assay of cellular proliferation. Format: cell-based. The note with it: Homo sapiens, 50% inhibition of cellular proliferation. How it is done:
as §1, §3
Regarding `COc1cc(Oc2ccnc3ccc(OC)cc23)cc(-n2cccn2)c1` [Compound 17, 6-methoxy-4(3-methoxy-5-(1H-pyrazol-1-yl)phenoxy)quinoline], the EC50 fell in the range of 1 to 1000 nM.

The next experiment relates to RPEMYC^H2B-GFP cells. Nature of the experiment: Phenotypic screening assay (mitotic arrest, polyploidy). The note with it: 1 nM to 30 μM. Format: cell-based. In outline: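 RPE cells expressing MYC and H2B-EGFP treated with compound at 1 nM–30 μM; mitotic index scored at 24 h and polyploidy (DNA content) at 48 h by automated imaging, with reads at 24, 48 or 72 h. Hits show transient mitotic arrest followed by polyploid accumulation.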
Regarding `COc1cc(Oc2ccnc3ccc(OC)cc23)cc(-n2cccn2)c1` [Compound 17, 6-methoxy-4(3-methoxy-5-(1H-pyrazol-1-yl)phenoxy)quinoline], the “Min. Effective conc. for Polyploidy (≥5%)” value is “B (a value greater than 1.00 μM and less than or equal to 10.0 μM)”; the “Mitotic Arrest (≥5%)” value is “B (a value greater than 1.00 μM and less than or equal to 10.0 μM)”; the “Proliferative arrest (>50%)” value was “B (a value greater than 1.00 μM and less than or equal to 10.0 μM)”.

The same experiment, now with this note: 1 nM to 30 μM, listed as 16.
For `COc1cc(Oc2ccnc3ccc(OC)cc23)cc(-n2cccn2)c1` [Compound 17, 6-methoxy-4(3-methoxy-5-(1H-pyrazol-1-yl)phenoxy)quinoline], the “Along with Cell Death” value was “B (a value greater than 1.00 μM and less than or equal to 10.0 μM)”.

The experiment is the same for the next values; noted with them: 1 nM to 30 μM, read-out: Min. Effective conc. for Polyploidy (≥5%).
For the compound `COc1cc(Oc2ccnc3ccc(OC)cc23)cc(-n2cccn2)c1` [Compound 17, 6-methoxy-4(3-methoxy-5-(1H-pyrazol-1-yl)phenoxy)quinoline], the minimal effective concentration lay in the range of 0.001 to 1 µM.

The experiment is the same for the next values; noted with them: 1 nM to 30 μM, read-out: Mitotic Arrest (≥5%).
As to `COc1cc(Oc2ccnc3ccc(OC)cc23)cc(-n2cccn2)c1` [Compound 17, 6-methoxy-4(3-methoxy-5-(1H-pyrazol-1-yl)phenoxy)quinoline], the minimal effective concentration was in the range of 0.001 to 1 µM.

Staying with this experiment, now noted: 1 nM to 30 μM, read-out: Proliferative arrest (>50%).
As for `COc1cc(Oc2ccnc3ccc(OC)cc23)cc(-n2cccn2)c1` [Compound 17, 6-methoxy-4(3-methoxy-5-(1H-pyrazol-1-yl)phenoxy)quinoline], the IC50 was in the range of 1 to 1000 nM.

For the next experiment, the system named is NCI-N87. Nature of the experiment: MECP in cancer cell line. The format is cell-based. To be noted: Homo sapiens. How it is done:
as §1, with “CO2. […]” for “CO2.”
The compound `COc1cc(Oc2ccnc3ccc(OC)cc23)cc(-n2cccn2)c1` [Compound 17, 6-methoxy-4(3-methoxy-5-(1H-pyrazol-1-yl)phenoxy)quinoline] showed a minimal effective concentration of 0.001 to 1 µM.

Another experiment concerns NCI-H23. Nature of the experiment: MECP in cancer cell line. Format: cell-based. To be noted: Homo sapiens. The method, then: as §1, with “CO2. […]” for “CO2.”
Regarding `COc1cc(Oc2ccnc3ccc(OC)cc23)cc(-n2cccn2)c1` [Compound 17, 6-methoxy-4(3-methoxy-5-(1H-pyrazol-1-yl)phenoxy)quinoline], the minimal effective concentration lay in the range of 0.001 to 1 µM.
